Assay results reported in ChEMBL document CHEMBL5291721, “A preclinical secondary pharmacology resource illuminates target-adverse drug reaction associations of marketed drugs” (Nat Commun, 2023).

Columns and labels:
[1] = target: Sodium-dependent serotonin transporter (Homo sapiens, UniProt P31645)
Mu-type opioid receptor = Mu-type opioid receptor (Homo sapiens, UniProt P35372)
[2] = target: cGMP-inhibited 3',5'-cyclic phosphodiesterase 3A (Homo sapiens, UniProt Q14432); type: functional
[3] = target: T1, Alpha-2A adrenergic receptor (Homo sapiens, UniProt P08913)
T1 sequence (P08913 whole entry): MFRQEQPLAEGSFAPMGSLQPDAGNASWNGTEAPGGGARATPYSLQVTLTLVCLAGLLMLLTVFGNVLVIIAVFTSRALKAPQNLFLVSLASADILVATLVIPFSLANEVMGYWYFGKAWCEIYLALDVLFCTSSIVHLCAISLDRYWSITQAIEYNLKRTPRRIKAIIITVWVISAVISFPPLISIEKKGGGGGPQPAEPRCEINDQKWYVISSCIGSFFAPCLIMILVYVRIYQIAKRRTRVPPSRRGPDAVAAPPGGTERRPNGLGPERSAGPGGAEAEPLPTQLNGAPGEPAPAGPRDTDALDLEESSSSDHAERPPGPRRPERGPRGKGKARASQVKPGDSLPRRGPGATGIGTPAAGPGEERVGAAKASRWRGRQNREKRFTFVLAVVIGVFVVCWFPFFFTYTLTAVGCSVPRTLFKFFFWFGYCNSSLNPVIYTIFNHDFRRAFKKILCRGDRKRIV

[4] = target: Sodium-dependent noradrenaline transporter (Homo sapiens, UniProt P23975)
Sequence of Sodium-dependent noradrenaline transporter (P23975 whole entry): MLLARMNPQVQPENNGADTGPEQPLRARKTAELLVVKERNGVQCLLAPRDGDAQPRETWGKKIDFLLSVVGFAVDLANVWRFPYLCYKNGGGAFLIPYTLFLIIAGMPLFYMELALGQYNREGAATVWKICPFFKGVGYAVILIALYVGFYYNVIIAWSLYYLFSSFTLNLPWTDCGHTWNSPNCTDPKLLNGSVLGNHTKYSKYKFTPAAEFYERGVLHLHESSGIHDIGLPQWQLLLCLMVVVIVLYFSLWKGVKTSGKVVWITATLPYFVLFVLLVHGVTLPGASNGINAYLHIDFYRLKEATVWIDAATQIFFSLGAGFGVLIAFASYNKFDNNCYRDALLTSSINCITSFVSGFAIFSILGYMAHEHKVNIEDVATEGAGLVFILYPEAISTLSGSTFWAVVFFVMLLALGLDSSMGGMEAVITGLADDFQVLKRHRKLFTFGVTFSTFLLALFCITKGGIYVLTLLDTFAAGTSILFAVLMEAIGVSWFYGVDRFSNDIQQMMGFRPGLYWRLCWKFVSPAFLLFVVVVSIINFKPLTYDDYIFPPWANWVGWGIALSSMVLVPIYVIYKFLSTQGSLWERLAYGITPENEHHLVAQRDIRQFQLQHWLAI

[5] = target: Voltage-gated inwardly rectifying potassium channel KCNH2 (Homo sapiens, UniProt Q12809); type: functional; conditions: read-out: AC50
Sequence of Voltage-gated inwardly rectifying potassium channel KCNH2 (Q12809 whole entry): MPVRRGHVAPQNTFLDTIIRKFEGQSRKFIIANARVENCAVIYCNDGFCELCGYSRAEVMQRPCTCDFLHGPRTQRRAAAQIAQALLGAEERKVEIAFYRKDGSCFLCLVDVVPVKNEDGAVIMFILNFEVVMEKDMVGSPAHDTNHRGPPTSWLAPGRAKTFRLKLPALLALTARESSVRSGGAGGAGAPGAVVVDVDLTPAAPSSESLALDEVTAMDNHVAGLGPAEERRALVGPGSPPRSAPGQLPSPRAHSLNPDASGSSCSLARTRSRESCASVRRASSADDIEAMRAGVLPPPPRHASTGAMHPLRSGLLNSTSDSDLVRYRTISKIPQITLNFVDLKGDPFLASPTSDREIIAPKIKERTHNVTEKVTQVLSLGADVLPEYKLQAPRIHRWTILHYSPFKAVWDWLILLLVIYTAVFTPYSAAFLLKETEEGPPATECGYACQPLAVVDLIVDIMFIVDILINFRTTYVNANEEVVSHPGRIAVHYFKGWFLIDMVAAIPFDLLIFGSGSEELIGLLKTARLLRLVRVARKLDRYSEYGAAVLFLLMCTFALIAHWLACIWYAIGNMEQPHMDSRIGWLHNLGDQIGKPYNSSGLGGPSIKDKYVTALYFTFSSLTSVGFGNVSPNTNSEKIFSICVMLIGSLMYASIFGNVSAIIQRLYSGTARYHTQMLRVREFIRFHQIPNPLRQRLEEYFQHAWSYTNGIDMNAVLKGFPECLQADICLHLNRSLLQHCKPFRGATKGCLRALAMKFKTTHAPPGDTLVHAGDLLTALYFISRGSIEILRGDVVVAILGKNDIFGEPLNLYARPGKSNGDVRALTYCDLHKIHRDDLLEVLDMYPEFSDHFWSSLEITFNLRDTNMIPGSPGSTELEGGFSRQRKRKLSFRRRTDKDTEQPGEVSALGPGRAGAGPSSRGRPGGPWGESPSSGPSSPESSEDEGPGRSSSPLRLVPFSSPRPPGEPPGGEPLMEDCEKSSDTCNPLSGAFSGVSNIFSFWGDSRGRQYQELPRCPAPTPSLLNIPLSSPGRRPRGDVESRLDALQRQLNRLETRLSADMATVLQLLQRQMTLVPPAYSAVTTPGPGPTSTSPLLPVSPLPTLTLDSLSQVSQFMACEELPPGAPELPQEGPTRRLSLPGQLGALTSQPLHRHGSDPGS

Thromboxane A2 receptor [6] = target: T2, Thromboxane A2 receptor (Homo sapiens, UniProt P21731); type: functional, cell-based
T2 sequence (P21731 whole entry): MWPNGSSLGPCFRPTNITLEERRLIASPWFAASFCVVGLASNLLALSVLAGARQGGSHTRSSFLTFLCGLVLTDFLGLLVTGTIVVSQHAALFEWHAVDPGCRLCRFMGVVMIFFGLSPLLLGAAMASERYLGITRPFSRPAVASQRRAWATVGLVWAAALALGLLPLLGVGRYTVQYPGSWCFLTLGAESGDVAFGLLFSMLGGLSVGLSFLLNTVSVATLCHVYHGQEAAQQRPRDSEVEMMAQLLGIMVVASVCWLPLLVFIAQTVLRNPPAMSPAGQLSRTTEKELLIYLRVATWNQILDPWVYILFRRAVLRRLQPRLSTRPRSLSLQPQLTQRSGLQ

Acetylcholinesterase = Acetylcholinesterase (Homo sapiens, UniProt P22303); type: functional
Sequence of Acetylcholinesterase (P22303 whole entry): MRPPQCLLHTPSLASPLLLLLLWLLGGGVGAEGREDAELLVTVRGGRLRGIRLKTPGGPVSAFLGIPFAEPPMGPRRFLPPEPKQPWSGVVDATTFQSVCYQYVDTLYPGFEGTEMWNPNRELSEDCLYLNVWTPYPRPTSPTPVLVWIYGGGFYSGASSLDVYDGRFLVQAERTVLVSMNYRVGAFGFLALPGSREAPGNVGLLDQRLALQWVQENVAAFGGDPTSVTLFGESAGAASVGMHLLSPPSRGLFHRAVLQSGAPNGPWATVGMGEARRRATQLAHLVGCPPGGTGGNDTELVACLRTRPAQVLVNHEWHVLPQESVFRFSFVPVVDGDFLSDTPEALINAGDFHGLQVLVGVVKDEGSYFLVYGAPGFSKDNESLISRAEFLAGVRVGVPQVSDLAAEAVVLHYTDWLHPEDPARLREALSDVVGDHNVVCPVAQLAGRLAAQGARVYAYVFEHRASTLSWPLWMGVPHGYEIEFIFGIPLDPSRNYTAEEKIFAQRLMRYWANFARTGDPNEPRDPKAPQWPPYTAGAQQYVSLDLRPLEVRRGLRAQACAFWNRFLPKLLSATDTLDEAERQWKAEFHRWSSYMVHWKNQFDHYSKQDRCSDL

[7] = target: T3, Muscarinic acetylcholine receptor M2 (Homo sapiens, UniProt P08172)
T3 sequence (P08172 whole entry): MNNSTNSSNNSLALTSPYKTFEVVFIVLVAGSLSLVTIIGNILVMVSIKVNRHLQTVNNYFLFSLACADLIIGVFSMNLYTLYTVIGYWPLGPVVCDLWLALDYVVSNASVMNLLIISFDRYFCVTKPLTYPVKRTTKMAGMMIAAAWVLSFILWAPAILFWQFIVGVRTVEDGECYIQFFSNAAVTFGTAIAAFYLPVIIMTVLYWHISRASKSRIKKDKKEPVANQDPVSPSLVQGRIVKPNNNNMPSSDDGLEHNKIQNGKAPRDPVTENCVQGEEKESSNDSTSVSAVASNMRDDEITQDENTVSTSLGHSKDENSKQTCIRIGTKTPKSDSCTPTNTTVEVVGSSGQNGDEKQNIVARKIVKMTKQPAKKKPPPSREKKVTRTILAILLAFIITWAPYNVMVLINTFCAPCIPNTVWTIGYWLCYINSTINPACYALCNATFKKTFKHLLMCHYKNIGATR

Adenosine receptor A3 = target: T4, Adenosine receptor A3 (Homo sapiens, UniProt P0DMS8)
T4 sequence (P0DMS8 whole entry): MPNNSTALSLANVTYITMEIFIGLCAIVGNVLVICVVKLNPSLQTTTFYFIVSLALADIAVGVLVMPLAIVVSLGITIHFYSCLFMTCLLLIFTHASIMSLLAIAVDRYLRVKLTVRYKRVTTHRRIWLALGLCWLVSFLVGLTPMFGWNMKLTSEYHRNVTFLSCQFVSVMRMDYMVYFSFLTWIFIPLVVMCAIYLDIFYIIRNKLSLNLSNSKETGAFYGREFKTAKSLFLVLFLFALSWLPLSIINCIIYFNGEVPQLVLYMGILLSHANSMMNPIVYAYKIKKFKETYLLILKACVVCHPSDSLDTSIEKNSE

Thromboxane A2 receptor [8] = target: T2, Thromboxane A2 receptor; type: functional, cell-based; remark: listed apart in the source
Estrogen receptor = target: T5, Estrogen receptor (Homo sapiens, UniProt P03372)
T5 sequence (P03372 whole entry): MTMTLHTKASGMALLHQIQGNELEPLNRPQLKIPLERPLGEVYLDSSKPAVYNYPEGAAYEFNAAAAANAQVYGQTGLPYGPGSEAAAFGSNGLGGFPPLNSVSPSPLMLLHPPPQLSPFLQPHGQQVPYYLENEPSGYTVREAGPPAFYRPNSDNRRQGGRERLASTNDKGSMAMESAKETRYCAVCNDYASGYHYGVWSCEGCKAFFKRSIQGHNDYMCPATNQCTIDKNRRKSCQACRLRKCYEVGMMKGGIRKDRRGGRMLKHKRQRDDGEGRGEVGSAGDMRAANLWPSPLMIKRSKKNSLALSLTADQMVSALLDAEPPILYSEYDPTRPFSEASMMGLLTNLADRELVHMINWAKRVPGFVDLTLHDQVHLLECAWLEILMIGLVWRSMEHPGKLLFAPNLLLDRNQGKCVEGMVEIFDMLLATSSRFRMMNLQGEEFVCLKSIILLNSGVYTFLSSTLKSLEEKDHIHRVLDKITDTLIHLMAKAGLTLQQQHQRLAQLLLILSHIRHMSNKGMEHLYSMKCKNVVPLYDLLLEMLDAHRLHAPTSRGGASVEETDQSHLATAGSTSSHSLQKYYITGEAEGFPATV

D(3) dopamine receptor = D(3) dopamine receptor (Homo sapiens, UniProt P35462)
Sequence of D(3) dopamine receptor (P35462 whole entry): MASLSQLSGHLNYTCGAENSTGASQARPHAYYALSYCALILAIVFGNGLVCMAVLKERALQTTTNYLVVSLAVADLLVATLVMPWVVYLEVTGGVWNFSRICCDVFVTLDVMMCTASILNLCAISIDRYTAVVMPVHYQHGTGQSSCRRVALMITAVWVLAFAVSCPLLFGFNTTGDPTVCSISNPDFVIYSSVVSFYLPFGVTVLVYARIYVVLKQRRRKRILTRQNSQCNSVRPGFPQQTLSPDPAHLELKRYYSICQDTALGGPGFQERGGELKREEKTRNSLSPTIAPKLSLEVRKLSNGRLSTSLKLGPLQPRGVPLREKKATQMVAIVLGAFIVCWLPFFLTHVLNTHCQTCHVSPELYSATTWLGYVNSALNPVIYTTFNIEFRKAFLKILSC
Also: assay procedure not described here.

Sequence of Mu-type opioid receptor (P35372 whole entry): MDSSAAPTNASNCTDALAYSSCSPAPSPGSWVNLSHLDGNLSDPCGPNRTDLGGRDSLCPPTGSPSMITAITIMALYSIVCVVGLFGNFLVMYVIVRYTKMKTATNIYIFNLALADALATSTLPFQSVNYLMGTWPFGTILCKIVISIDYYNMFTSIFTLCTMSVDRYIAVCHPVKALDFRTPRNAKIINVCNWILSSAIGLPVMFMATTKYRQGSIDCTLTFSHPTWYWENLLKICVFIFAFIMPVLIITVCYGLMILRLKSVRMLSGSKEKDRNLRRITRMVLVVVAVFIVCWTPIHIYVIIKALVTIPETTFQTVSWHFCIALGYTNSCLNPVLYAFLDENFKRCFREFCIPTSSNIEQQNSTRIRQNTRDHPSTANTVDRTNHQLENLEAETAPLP
Sequence of Sodium-dependent serotonin transporter (P31645 whole entry): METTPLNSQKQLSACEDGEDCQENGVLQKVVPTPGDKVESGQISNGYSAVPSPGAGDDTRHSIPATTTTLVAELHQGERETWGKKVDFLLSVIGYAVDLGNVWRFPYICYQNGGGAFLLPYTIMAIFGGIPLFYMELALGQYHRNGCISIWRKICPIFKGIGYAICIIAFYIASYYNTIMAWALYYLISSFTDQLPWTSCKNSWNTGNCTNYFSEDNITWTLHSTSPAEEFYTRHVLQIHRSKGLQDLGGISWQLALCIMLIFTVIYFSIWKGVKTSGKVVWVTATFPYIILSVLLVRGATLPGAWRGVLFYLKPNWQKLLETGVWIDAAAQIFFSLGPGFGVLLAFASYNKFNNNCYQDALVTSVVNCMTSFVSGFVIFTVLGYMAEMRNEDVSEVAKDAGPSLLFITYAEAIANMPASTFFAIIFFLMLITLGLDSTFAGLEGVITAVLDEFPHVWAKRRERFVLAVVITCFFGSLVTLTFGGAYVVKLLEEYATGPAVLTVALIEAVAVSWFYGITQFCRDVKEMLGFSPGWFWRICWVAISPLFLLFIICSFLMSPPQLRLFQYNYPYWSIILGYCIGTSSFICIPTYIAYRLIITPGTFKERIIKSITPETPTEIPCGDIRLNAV
Sequence of cGMP-inhibited 3',5'-cyclic phosphodiesterase 3A (Q14432 whole entry): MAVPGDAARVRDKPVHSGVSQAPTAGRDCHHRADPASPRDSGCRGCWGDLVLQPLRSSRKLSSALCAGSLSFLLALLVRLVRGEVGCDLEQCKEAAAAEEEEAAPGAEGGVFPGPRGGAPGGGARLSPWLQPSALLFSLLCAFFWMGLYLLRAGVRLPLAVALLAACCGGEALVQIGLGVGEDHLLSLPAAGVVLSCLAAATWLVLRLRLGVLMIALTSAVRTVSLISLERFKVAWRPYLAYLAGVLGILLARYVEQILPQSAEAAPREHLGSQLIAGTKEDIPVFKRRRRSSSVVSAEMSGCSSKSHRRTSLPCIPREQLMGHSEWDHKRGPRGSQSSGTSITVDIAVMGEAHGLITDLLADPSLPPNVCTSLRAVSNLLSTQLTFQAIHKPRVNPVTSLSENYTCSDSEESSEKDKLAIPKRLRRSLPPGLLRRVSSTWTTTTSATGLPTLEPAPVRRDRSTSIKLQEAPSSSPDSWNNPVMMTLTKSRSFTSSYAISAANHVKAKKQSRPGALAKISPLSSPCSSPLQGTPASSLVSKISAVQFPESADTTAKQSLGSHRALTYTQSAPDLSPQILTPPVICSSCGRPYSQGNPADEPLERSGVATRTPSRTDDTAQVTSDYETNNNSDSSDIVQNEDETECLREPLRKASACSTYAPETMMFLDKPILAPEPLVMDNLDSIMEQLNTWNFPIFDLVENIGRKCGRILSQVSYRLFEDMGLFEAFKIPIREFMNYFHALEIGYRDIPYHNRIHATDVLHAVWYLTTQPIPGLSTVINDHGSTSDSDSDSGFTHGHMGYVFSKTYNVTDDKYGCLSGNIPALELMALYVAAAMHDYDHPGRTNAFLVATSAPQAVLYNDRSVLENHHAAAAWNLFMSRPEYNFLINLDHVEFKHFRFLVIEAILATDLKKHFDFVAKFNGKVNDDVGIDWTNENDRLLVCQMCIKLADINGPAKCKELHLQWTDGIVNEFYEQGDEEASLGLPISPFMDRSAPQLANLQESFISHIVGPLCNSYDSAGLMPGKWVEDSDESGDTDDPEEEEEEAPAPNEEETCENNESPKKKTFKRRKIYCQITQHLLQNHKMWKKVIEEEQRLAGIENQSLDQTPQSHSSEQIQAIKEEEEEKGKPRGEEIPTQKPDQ

Structure (SMILES) | AC50 [1] [µM] | AC50 (Mu-type opioid receptor) [µM] | AC50 [2] [µM] | AC50 [3] [µM] | AC50 [4] [µM] | AC50 [5] [µM] | AC50 (Thromboxane A2 receptor [6]) [µM] | AC50 (Acetylcholinesterase) [µM] | AC50 [7] [µM] | AC50 (Adenosine receptor A3) [µM] | AC50 (Thromboxane A2 receptor [8]) [µM] | AC50 (Estrogen receptor) [µM] | AC50 (D(3) dopamine receptor) [µM]
CCCC(=O)O[C@H]1[C@H](C)O[C@@H](O[C@H]2[C@H](N(C)C)[C@@H](O)[C@H](O[C@H]3[C@@H](CC=O)C[C@@H](C)[C@@H](O)/C=C/C=C/C[C@@H](C)OC(=O)C[C@@H](O)[C@@H]3OC)O[C@@H]2C)C[C@@]1(C)OC(=O)CC [ROKITAMYCIN] | > 30 | > 30 | > 10 | > 30 | > 30 | > 30 | > 30 | > 30 | > 30 | > 30 | > 30 | > 30 | > 30
CCCCCCCCCCCCCCCCCC(=O)NCCCC[C@H](NC(=O)CC[C@@H](NC(=O)[C@H](C)NC(=O)[C@@H](C)O[C@H]1[C@H](O)[C@@H](CO)OC(O)[C@@H]1NC(C)=O)C(N)=O)C(=O)O (stereo not given in full) [ROMURTIDE] | > 30 | > 30 | > 30 | > 30 | > 30 | 26 | 15.9 | > 30 | > 30 | 2.2 | > 3 | 22.2 | > 30
CCOC(=O)[C@H](CCc1ccccc1)N[C@H]1CS[C@H](c2cccs2)CN(CC(=O)O)C1=O [TEMOCAPRIL] | > 30 | > 30 | > 30 | > 30 | > 30 | > 30 | > 30 | > 30 | > 30 | > 30 | > 30 | > 30 | > 30
COc1cc([C@@H]2c3cc4c(cc3[C@@H](O[C@@H]3O[C@@H]5CO[C@@H](c6cccs6)O[C@H]5[C@H](O)[C@H]3O)[C@H]3COC(=O)[C@H]23)OCO4)cc(OC)c1O [TENIPOSIDE] | > 30 | > 30 | > 3 | > 30 | > 30 | > 30 | > 30 | > 30 | > 30 | > 30 | > 30 | > 30 | > 30
CCSc1ccc2c(c1)N(CCCN1CCN(C)CC1)c1ccccc1S2 [THIETHYLPERAZINE] | 4.88 | 2.69 | > 30 | 0.211 | 1.65 | 1.2 | > 30 | > 30 | 2.24 | 6.62 | 3.98 | > 30 | 0.0031
